Reference: BindingDB's records for doi:10.1016/j.bmcl.2013.06.055 (Takeda California, 2013)

How the values were obtained:
[1] = Inhibition of PARP1 in human Jurkat cells assessed as reduction of cell viability after 96 hrs by MTS assay
[2] = Inhibition of PARP1 in human Jurkat cells assessed as reduction of cell viability after 96 hrs by MTS assay in presence of 100 uM of temozolomide

Row | Compound | EC50 [1] | EC50 [2]
1 | Cc1cc(CN2CCN(c3ccc(C(=O)NC4CC4)cc3Cl)CC2)cc2c1OC(C)C(=O)N2 (configuration not stated) | 43 µM | 0.01 µM
2 | CNC(=O)c1ccc(N2CCN(Cc3cc(C)c4c(c3)NC(=O)C(C)O4)CC2)c(C)c1 (configuration not stated) | 78 µM | 9 µM
3 | CCNC(=O)c1ccc(N2CCN(Cc3cc4c(c(OC)c3)OC(C)C(=O)N4)CC2)c(C)c1 (configuration not stated) | 44 µM | 0.01 µM
4 | COc1cc(CN2CCN(c3ccc(C(=O)NC4CC4)cc3C)CC2)cc2c1OC(C)C(=O)N2 (configuration not stated) | 77 µM | 0.02 µM
5 | CNC(=O)c1ccc(N2CCN(Cc3cc(C)c4c(c3)NC(=O)C(C)O4)CC2)c(Cl)c1 (configuration not stated) | 45 µM | 14 µM
6 | CCNC(=O)c1ccc(N2CCN(Cc3cc4c(c(OC)c3)OC(C)C(=O)N4)CC2)cc1 (configuration not stated) | 151 µM | 16 µM
7 | COc1cc(CN2CCN(c3ccc(C(=O)NC4CC4)cc3)CC2)cc2c1OC(C)C(=O)N2 (configuration not stated) | 162 µM | 16 µM
8 | CCNC(=O)c1ccc(N2CCN(Cc3ccc4c(c3)NC(=O)C(C)O4)CC2)cc1 (configuration not stated) | 42 µM | 15 µM
9 | CCNC(=O)c1ccc(N2CCN(Cc3cc(C)c4c(c3)NC(=O)C(C)O4)CC2)c(Cl)c1 (configuration not stated) | 47 µM | 14 µM
10 | CNC(=O)c1ccc(N2CCN(Cc3cc(C)c4c(c3)NC(=O)C(C)O4)CC2)cc1 (configuration not stated) | 75 µM | 11 µM
11 | CNC(=O)c1ccc(N2CCN(Cc3ccc4c(c3)NC(=O)C(C)O4)CC2)cc1 (configuration not stated) | 14 µM | 15 µM
12 | CNC(=O)c1ccc(N2CCN(Cc3cc4c(c(OC)c3)OC(C)C(=O)N4)CC2)c(C)c1 (configuration not stated) | 100 µM | 0.06 µM
13 | CCNC(=O)c1ccc(N2CCN(Cc3cc(C)c4c(c3)NC(=O)C(C)O4)CC2)cc1 (configuration not stated) | 94 µM | 9 µM
14 | CCNC(=O)c1ccc(N2CCN(Cc3ccc4c(c3)NC(=O)C(C)O4)CC2)c(Cl)c1 (configuration not stated) | 100 µM | 4 µM
15 | CCNC(=O)c1ccc(N2CCN(Cc3cc(C)c4c(c3)NC(=O)C(C)O4)CC2)c(C)c1 (configuration not stated) | 55 µM | 9 µM
16 | CNC(=O)c1ccc(N2CCN(Cc3cc4c(c(OC)c3)OC(C)C(=O)N4)CC2)cc1 (configuration not stated) | 251 µM | 27 µM
17 | Cc1cc(CN2CCN(c3ccc(C(=O)NC4CC4)cc3)CC2)cc2c1OC(C)C(=O)N2 (configuration not stated) | 100 µM | 5 µM
18 | CCOc1cc(CN2CCN(c3ccc(C(=O)NC4CC4)cc3C)CC2)cc2c1OC(C)C(=O)N2 (configuration not stated) | 100 µM | 0.02 µM
19 | CCOc1cc(CN2CCN(c3ccc(C(=O)NC)cc3C)CC2)cc2c1OC(C)C(=O)N2 (configuration not stated) | 26 µM | 0.02 µM
20 | Cc1cc(C(=O)NC2CC2)ccc1N1CCN(Cc2cc(C)c3c(c2)NC(=O)C(C)O3)CC1 (configuration not stated) | 100 µM | 18 µM
21 | CCNC(=O)c1ccc(N2CCN(Cc3cc4c(c(OCC)c3)OC(C)C(=O)N4)CC2)c(C)c1 (configuration not stated) | 100 µM | 0.02 µM
